Assays:
[1] = tested on: 5-HT, NA, DA and metabolites thereof in hippocampus; assay: Detection of monoamine and metabolites thereof in brains of mice; type: in vivo; details: 10 mg/kg
Procedure: Hippocampus was collected immediately on ice, weighed, put into an Eppendorf tube and kept in refrigeratory at −80° C. To each 100 mg brain tissue, 200 μl ice-cooled Solution A (0.4 mol/L HCLO4) was added. The mixture was homogenized ultrasonically in a ice bath, kept in dark at 4° C. for 60 min, and centrifuged for 20 min (12,000 rpm, 4° C.). […] The mixture was vortexed thoroughly for 10 min, kept at 4° C. in dark for 60 min, and centrifuged again for 20 min (12,000 rpm, 4° C.). The supernatant was collected and measured for the content of monoamine. The contents of 5-HT, NA, DA, 5-HIAA and DOPAC in brain tissue were determined by High Effective Liquid Phase Electrochemistry. […] The contents of monoamine and metabolites thereof in brain tissue were shown as ng/g wet tissue weight.

[2] = background statement; cited from earlier work
male ICR mice [3] = assay: Forced swimming test of mice; type: in vivo; details: curcumin 10 mg/kg, Days 3 and 7 after administration
Procedure: The mice were forced to swim on Days 3, 7 and 14 after administration, except that such experiment was not performed for the curcumin group on Day 14.
Twenty four hours before the formal test, the mice were placed into a round glass container (height: 25 cm, diameter: 10 cm) filled with water (depth: 10 cm) with a temperature of 24±1° C., and forced to conduct swim training for 15 min. Twenty four hours later, the mice were placed into the round glass container filled with water (depth: 10 cm) again and forced to swim for 6 min. The accumulative immobile time within the last 4 min was observed and recorded for each mouse. The immobile time is intended to mean the period within which the mouse stops to struggle, floats in the water and keeps immobile, or only makes a few slight movements that are necessary to keep its head floating on the surface of water.

male ICR mice [4] = assay: Tail suspension test in mice; type: in vivo; details: curcumin 10 mg/kg, Days 3 and 7 after administration, vs control group
Procedure: The tail suspension test was carried out for each of these groups on Days 3, 7 and 14 after administration, except that such experiment was not performed for the curcumin group on Day 14. Tails of the mice were taped on a special iron stand at 1 cm from the tips, whilst keeping the mice staying at a height of 50 cm from ground. Performance of the mice was observed within 6 min, and the accumulative immobile time within the last 4 min was recoded for each mouse.

S-180 sarcoma cells = assay: Antitumor experiment of tumor S-180-bearing mice; type: in vivo; details: 5-FU administered daily, 7 days
Text: During the experiment, the mice were inoculated with S-180 sarcoma cells (×10^7) in armpits. […] Seven days later, the mice were sacrificed by decollation. The tumors were removed, and the mice and the tumors were weighed separately.

HCT116 cells = assay: Antitumor experiment of tumor HCT116-bearing mice; type: in vivo; details: 5-FU administered daily, 7 days
Text: During the experiment, the mice were inoculated with HCT116 cells (×10^7) in armpits. […] Seven days later, the mice were sacrificed by decollation. The tumors were removed, and the mice and the tumors were weighed separately.

S-180 cells = assay: Effect on apoptosis of tumor cells, cell cycle by flow cytometry; type: in vivo, mice; details: sarcoma cell cycle, S-180 tumor fluid, 7 days
Text: During the experiment, the mice were inoculated with S-180 cells (×10^7) in armpits. Seven days later, the mice were sacrificed by decollation and the tumors were removed. Tumor fluid was collected from tumors, and used for determining cell cycle by flow cytometry after ethanol fixation.

[5] = tested on: chronically stressed rats; assay: Forced swimming test of rats (chronic stress model); type: in vivo; details: imipramine 10 mg/kg intraperitoneally daily for 21 days
Text: (§1) The rats in the normal control group were raised normally under a condition without any stimulation except for weighing body weight, measuring body temperature, and subjected to sugar test. All of other groups were subjected to stimulations of same type and same strength. During the experiment, different types of stimulations were applied in an unpredictable manner, and the same type of stimulation was enhanced each time.
(§2) The chronic stress course was 20 days in total, once per day, from 9:00 AM to 2:00 PM. The stress protocol was shown as follows: horizontally shaking at a high speed for 45 min; nipping tails (1 cm from the tail root): 1 min; depriving of water for 24 h; forbidding moving for 1.5 h; fasting for 24 h; stimulating with ice water (water temperature: 10° C.) for 5 min; electric shocking (1 mA, time course: is, 1 shock/min) the bottoms of feet for 30 min; changing cages and raising separately for 24 h; forbidding moving for 2 h; nipping tails (1 cm from the root of tail) for 1 min; depriving of water for 24 h; horizontally shaking at a high speed for 1.5 h; fasting for 24 h; nipping tails (1 cm from the tail root): 1 min; electric shocking (1 mA, time course: 1 s, 1 shock/min) the bottoms of feet for 40 min; stimulating with ice water for 5 min; changing cages and raising separately for 24 h; horizontally shaking at a high speed for 60 min; electric shocking (1 mA, time course: 1 s, 1 shock/min) the bottoms of feet for 50 min; depriving of water for 24 h; forbidding moving for 2.5 h; and 24 h social isolation.
Please see FIG. 7. 24 hours before the formal test, rats were placed into a round glass container (height: 40 cm, diameter: 18 cm) filled with water (depth: 23 cm) with a temperature of 24±1° C., and forced to conduct swim training for 15 min. […] The accumulative immobile time within the last 4 min was observed and recorded for each rat. The immobile time is intended to mean the period within which the rat stops to struggle, floats in the water and keeps immobile, or only makes a few slight movements that are necessary to keep its head floating on the surface of water.

serum corticosterone = assay: Determination of the content of serum corticosterone (chronic stress model); type: in vivo; details: stressed rats, imipramine 10 mg/kg daily, day after 21-day stress
Text: as §1, §2
In this experiment, the content of serum corticosterone was measured by a competitive method, with its mechanism shown as follow: antigens in samples and enzyme-labeled antigens compete to bind antibodies in a solid phase. The more antigens exist in samples, the less enzyme-labeled antigens bind to the solid phase, thereby resulting in a fainter coloration.
On the next day after the end of the 21-day stress period, rats were sacrificed by decollation, and 5˜10 ml whole blood was collected. A portion of the collected whole blood was kept at room temperature for 20 min, followed by centrifugation at 1000 rpm for 10 min. Serum was then separated and stored at −80° C. The serum corticosterone detection kit was used for such detection.

[6] = tested on: chronically stressed rats; assay: Measurement of body temperature of chronically stressed rats; type: in vivo; details: imipramine 10 mg/kg intraperitoneally daily for 21 days, chronic stress
Text: as §1
as §2, with “The” for “The chronic stress course was 20 days in total, once per day, from 9:00 AM to 2:00 PM. The”
The front part of a digital thermometer was coated with liquid paraffin, and then inserted into the anus of a rat with a depth of approximately 1 cm. The temperature was read twice accordingly and averaged.

[7] = tested on: chronically stressed rats; assay: Sugar water test of rats (chronic stress model); type: in vivo; details: imipramine 10 mg/kg, table title says (%), the values are: sugar water preference
Text: as §1, §2
Before this experiment, animals were trained to adapt to drink sugar water in a to quite room. Two bottles were placed simultaneously into each cage. For the first 24 h, these two bottles were both filled with 1% sugar water; and for the next 24 h, one of them was filled with 1% sugar water and the other was filled with pure water. Then after 23-hour water deprivation, the animals were tested for basic sugar water/pure water consumption. One bottle of 1% sugar water and one bottle of pure water were provided to each rat simultaneously. One hour later, the two bottles were weighed, and the total liquid consumption, sugar water consumption, pure water consumption, and the sugar water preference=sugar water consumption/total liquid consumption×100% were calculated, respectively. The experiment was performed after continuous administration of curcumin for 14 days.

[8] = first line of group (Day 3 presumed)
[9] = second line of group (Day 7 presumed)

COc1cc(/C=C/C(=O)CC(=O)/C=C/c2ccc(O)c(OC)c2)ccc1O [Curcumin, curcumin, reference compound]
Hippocampus 5-HIAA [1, 8]: 175.7 ± 13.8 ng/g
Hippocampus 5-HIAA/5-HT [1, 8]: 0.32 ± 0.03
Hippocampus 5-HT [1, 8]: 541.2 ± 31.8 ng/g
Hippocampus DOPAC [1, 8]: 12.4 ± 1.2 ng/g
Hippocampus Dopamine [1, 8]: 19.1 ± 3.6 ng/g
Hippocampus Noradrenaline [1, 8]: 245.6 ± 12.2 ng/g
Hippocampus 5-HIAA [1, 9]: 179.2 ± 14.9 ng/g
Hippocampus 5-HIAA/5-HT [1, 9]: 0.33 ± 0.03
Hippocampus 5-HT [1, 9]: 534.6 ± 28.9 ng/g
Hippocampus DOPAC [1, 9]: 11.9 ± 1.8 ng/g
Hippocampus Dopamine [1, 9]: 18.8 ± 5.4 ng/g
Hippocampus Noradrenaline [1, 9]: 246.6 ± 11.2 ng/g
half life [2]: approximately 1 hour
reduction of accumulative immobile time in the forced swimming test (male ICR mice [3]): did not significantly reduce
reduction of tail suspension accumulative immobile time (male ICR mice [4]): no significant difference

O=c1[nH]cc(F)c(=O)[nH]1 [Example 5-FU, 5-FU, reference compound]
inhibitory rate of tumors (S-180 sarcoma cells): 55.8%
inhibitory rate of tumors (HCT116 cells): 52.8%
APO % (apoptosis level of tumor cells) (S-180 cells): 29.1%
G1 % (S-180 cells): 35.1%
G2 % (S-180 cells): 11.7%
S % (S-180 cells): 53.2%

CN(C)CCCN1c2ccccc2CCc2ccccc21 [Imipramine, imipramine, reference compound]
reduced the accumulative immobile time of the forced swimming test [5]: 40.5%
serum corticosterone (serum corticosterone): 137.0 ± 15.3 nmol/L
Body temperature after stress [6]: 36.34 ± 0.083 °C
Sugar water volume after stress [7]: 67.5 ± 5%
Sugar water volume before stress [7]: 74.8 ± 7.8%
